The values below come from patent publication US20250163387A1, “HUMAN PITUITARY NEUROENDOCRINE TUMOR ORGANOIDS AND METHODS OF MAKING AND USING THE SAME” (ARIZONA BOARD OF REGENTS OF THE UNIVERSITY OF ARIZONA, A …, priority 2022, published 2025).

Assay [1] deals with iPSC^ctrl organoids. The experiment in a line: Nuclear irregularity index (NII) morphometric analysis. In kind it is cell-based, human. Conditions: 500 nM. Here is the method:
(§1) Nuclear Morphometric Analysis (NMA) using treated organoids was performed based on a published protocol that measures cell viability based on the changes in nuclear morphology of the cells using nuclear stain Hoechst or DAPI [30]. Images of organoid nuclei were analyzed using the ImageJ Nuclear Irregularity Index (NII) plugin for key parameters that included cell area, radius ratio, area box, aspect, and roundness. Using the published spreadsheet template, the NII of each cell was calculated with the following formula: NII=Aspect−Area Box+Radius Ratio+Roundness. The area vs NII of vehicle-treated cells were plotted as a scatter plot using the template and considered as the normal cell nuclei. The same plots were generated for each condition, and the NII and area of treated cells were compared to the normal nuclei, and classified as one of the following NMA populations: Normal (N; similar area and NII), Mitotic (S; similar area, slightly higher NII), Irregular (I; similar area, high NII), Small Regular (SR; apoptotic, low area and NII), Senescent (LR; high area, low NII), Small Irregular (SI; low area, high NII), or Large Irregular (LI; high area, high NII). […] The percentage of cells in each NII classification category were calculated and plotted as a histogram using GraphPad Prism.

Assay [2] deals with iPSC^USP48MV organoids. Described as above. The note with it: 500 nM. In kind it is cell-based, human. Here is the method:
as §1

The next assay relates to hPITO37. The experiment in a line: Spectral flow cytometry (SSTR2, SSTR5, ACTH, zombie). In kind it is cell-based, human. The note with it: Mife 2.85 nM. Here is the method:
(§2) The multicolor flow cytometry panel was designed using the Cytek®Full Spectrum Viewer online tool to calculate the similarity index. The organoids were harvested in cold SFDM media and centrifuged at 400×g for 5 minutes. Supernatant was discarded and organoids were dissociated to single cells using Accutase® (Thermo Fisher Scientific 00-4555-56). The enzymatic reaction was stopped using prewarmed DPBS and cells were then centrifuged at 400×g for 5 minutes and incubated with fluorochrome-conjugated/unconjugated primary surface or cytoplasmic antibodies at 4° C. for 30 minutes. Cells were then washed with Cell Staining Buffer (BioLegend #420-201) and incubated with secondary antibodies at 4° C. for 30 minutes. Cells were fixed using Cytofix/Cytoperm™ Fixation/Permeabilization Solution (BD Biosciences #554714) at 4° C. for 20 minutes, followed by washing with Fixation/Permeabilization wash buffer. Cells were then labeled with fluorochrome-conjugated/unconjugated intracellular primary antibodies at 4° C. for 30 minutes, washed and incubated with secondary antibodies at 4° C. for 30 minutes. Cells resuspended in cell staining buffer and fluorescence measured using the Cytek Aurora 5 Laser Spectral Flow Cytometer. An unstained cell sample was fixed and used as reference control. UltraComp eBeads™, Compensation Beads (Thermo Fisher Scientific #01-2222-42) were stained with the individual antibodies and used as single stain control for compensation and gating. Data was acquired using the Cytek™ Aurora and analyzed using Cytobank software (Beckman Coulter, Indianapolis, IN).

Assay [3] concerns iPSC^USP48MV organoids. Described as above. Conditions: Rela 500 nM, Mife 500 nM. In kind it is cell-based, human. Here is the method: as §2
The test system of a further assay is hPITO39. Briefly: Nuclear Morphometric Analysis (NII). In kind it is cell-based, human. Conditions: compared to pasireotide and ketoconazole. The method, then:
as §1, with “Prism. […]” for “Prism.”

A further assay relates to FKBP5. Briefly: GR modulation: GR target gene FKBP5 expression in PitNET organoids. In kind it is cell-based, human.
For assay [4], the system named is iPSC^ctrl organoids. Briefly: Proliferation by EdU uptake. In kind it is cell-based, human. The note with it: drug alone, 500 nM. The method, then:
(§3) Organoids were immunostained using published protocols by our laboratory. Proliferation was measured by using 5-ethynyl-2'-deoxyuridine (EdU) incorporation according to the Manufacturer's protocol (Click-IT EdU Alexa Fluor 555 Imaging Kit, Thermo Fisher Scientific C10338). Costaining was performed by blocking fixed organoids with 2% donkey serum (Jackson Immuno Research, #017-000-121) diluted in 0.01% PBST for 1 hr. at room temperature. Organoids were then incubated overnight at 4° C. with primary antibodies followed by secondary antibodies and Hoechst (Thermo Fisher Scientific H1399, 1:1000 in 0.01% PBST) for 1 hr at room temperature. Human specific primary antibodies used included: rabbit anti-ACTH (Thermo Fisher Scientific 701293, 1:250), rabbit anti-Synaptophysin (Thermo Fisher Scientific PA5-27286, 1:100), […] (Thermo Fisher Scientific PA5-98650, 1:50), rabbit anti-LH (Thermo Fisher Scientific PA5-102674, 1:100), mouse anti-FSH (Thermo Fisher Scientific MIF2709, 1:100), mouse anti-PRL (Thermo Fisher Scientific CF500720, 1:100), Alexa Flour conjugated GH (NB500-364AF647, 1:100) and mouse anti-CAM5.2 (SIGMA […]-95, 1:250). The secondary antibodies used included Alexa Fluor 488 Donkey Anti Rabbit IgG (H+L) (Thermo Fisher Scientific A21206, 1:100) or Alexa Fluor 647 Donkey Anti Mouse IgG (H+L) (Thermo Fisher Scientific A31571, 1:100). Organoids were visualized and images acquired by confocal microscopy using the Nikon CrestV2 Spinning Disk. Fluorescence intensity and percentage of EdU positive cells of total cells, were calculated using Nikon Elements Software (Version 5.21.05).

Assay [5] relates to iPSC^USP48MV organoids. The experiment in a line: Proliferation by EdU uptake. In kind it is cell-based, human. The note with it: drug alone, 500 nM. Here is the method:
as §3

Another assay deals with SSTR5. Briefly: Differential expression of SSTR5 in iPSC generated pituitary tumor organoids. In kind it is cell-based, human.
The subject of a further assay is macroadenomas. Conditions: patients with macroadenomas; relacorilant for three months; cited from earlier work.

As for `CC#C[C@]1(O)CC[C@H]2[C@@H]3CCC4=CC(=O)CCC4=C3[C@@H](c3ccc(N(C)C)cc3)C[C@@]21C` [Mifepristone], the “apoptotic cells by nuclear morphology (NII)” value in the assay with iPSC^ctrl organoids [1] and in the assay on iPSC^USP48MV organoids [2] was “not observed” throughout. In the assay with hPITO37, the “number of ACTH expressing cells” value is “significantly increased”. For the same compound, the “cell death (Zombie positive cells)” value is given as “not observed” with hPITO37 (Pas 837.5 nM, Rela 382 nM) and “not observed” in the assay on iPSC^USP48MV organoids [3] (Pas 100 nM). For the same compound, the “percentage of SSTR2 positive cells” value was “significant increase” in the assay on hPITO37 (Rela 382 nM, vs Veh) and “significant increase” with iPSC^USP48MV organoids [3] (vs Veh). Moreover, the “percentage of SSTR5 positive cells” value in the assay on hPITO37 (Rela 382 nM, vs Veh) is given as “significant increase”; in the assay on iPSC^USP48MV organoids [3] (vs Veh), “significant increase”. Besides, in the assay on iPSC^USP48MV organoids [3] (Pas 100 nM), the ACTH positive cells result is reported as “significant induction”. In the assay on hPITO39, the “Apoptosis by nuclear morphometric analysis” value is “induced significant apoptosis”. The “differential expression of FKBP5” value in the assay on FKBP5 is listed as “significantly reduced”. For the same compound, the “cell proliferation (EdU uptake)” value with iPSC^ctrl organoids [4] and with iPSC^USP48MV organoids [5] was “significant increase” each time. Moreover, the “expression of SSTR5” value in the assay with SSTR5 (iPSC organoids (ctrl, USP48MI, USP48MV, USP8), 500 nM, vs vehicle) is “significant induction”. Moreover, the “differential expression of SSTR5” value with SSTR5 (iPSC^ctrl organoids, drug alone (Mife 500 nM, GANT 5 uM, Keto 10 uM, Dexa 100 nM)) is on record as “significantly induced”. Also, the “tumor (macroadenoma) regression” value in the assay with macroadenomas was “have not been observed”.
